{"source": "patent US10450317B2", "about": "“Notch pathway signaling inhibitor compounds” (Eli Lilly and Company, priority 2015, dated 2019)", "origin": "cited, not measured here", "key": {"[1]": {"details": "systemic administration; cited from earlier work"}, "auditory hair cells": {"test_system": "auditory hair cells", "details": "middle ear delivery, mice with acoustic trauma; cited from earlier work"}}, "data": [{"compound": "C[C@H](NC(=O)[C@@H](O)c1cc(F)cc(F)c1)C(=O)N[C@@H]1C(=O)N(C)c2ccccc2-c2ccccc21", "note": "[LY411575]", "values": [{"measurement": "toxicity", "setting": "[1]", "result": "Dose limiting toxicity was shown"}, {"measurement": "hearing recovery by regeneration of auditory hair cells", "setting": "auditory hair cells", "result": "significant, measurable, hearing recovery"}]}]}
